Activity calls are given as the source filed them. The rule behind the calls is not given here.
How the values were obtained:
[1] = molecular target: Envelope glycoprotein gp160 (Human immunodeficiency virus type 1 group M subtype B (isolate HXB2)(HIV-1)) (UniProt P04578); assay: Tested for inhibition of HIV CD4-gp120 interaction in an ELISA based binding assay using recombinant gp120 and soluble CD4 up to a concentration of 350 uM; No inhibition
[2] = molecular target: Envelope glycoprotein gp160 (Human immunodeficiency virus type 1 group M subtype B (isolate HXB2)(HIV-1), UniProt P04578); assay: Tested for inhibition of HIV gp120-CD4 interaction in an ELISA based binding assay using recombinant CD4-gp120
[3] = molecular target: Envelope glycoprotein gp160 (Human immunodeficiency virus type 1 group M subtype B (isolate HXB2)(HIV-1)) (UniProt P04578); assay: Tested for inhibition of HIV CD4-gp120 interaction in an ELISA based binding assay using recombinant gp120 and soluble CD4 up to a concentration of 550 uM; No inhibition

inhibition [1]	SMILES	also measured
inactive	CC(C)C[C@H](NC(=O)[C@H](Cc1ccccc1)NC(=O)[C@H]1/C(=C/CO)O[C@@H]2CC(=O)N21)C(=O)OCc1ccccc1	
	COC(=O)C(=O)N1CCC[C@@H]1C(=O)N[C@H](Cc1ccccc1)C(=O)OCc1ccccc1	IC50 [2]: 250 µM
	COC(=O)[C@H](Cc1ccccc1)NC(=O)[C@H]1/C(=C/CO)O[C@@H]2CC(=O)N21	inhibition [3]: inactive
inactive	COC(=O)[C@H](Cc1ccccc1)NC(=O)[C@@H]1N2C(=O)[C@@H](N)[C@H]2SC1(C)C	
